PubChem BioAssay AID1919003 (Molecular Pharmacology Branch, DTP, NCI, 2023)
Several values for one entry are separate records, joined by “and”; a condition that tells them apart may be missing. Identical values can stand only once.

Tested on: 786-0 complex spheroids with HUVEC/MSC, growth % test/control
Assay: Anticancer human tumor 786-0 cell line growth inhibition [AhR];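 also: compound exposure lasted seven days before the read-out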
Conditions: for viability, T/C: stronger effect = lower value
Outline: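 Agents were dosed in half-log steps down from roughly clinical Cmax, or from 10 microM where Cmax was unknown, alone and with AhR antagonists. Read-out: percent test/control growth of tumor spheroids containing HUVEC and MSC stromal cells.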

[1] = curve of first compound, second compound 0.1 µM
[2] = curve of first compound, second compound 0.316 µM
[3] = curve of first compound, second compound 1 µM
[4] = curve of first compound, second compound 3.16 µM
[5] = curve of first compound, second compound 10 µM
[6] = second compound 0.1 µM, first compound 0.00316 µM
[7] = second compound 0.1 µM, first compound 0.01 µM
[8] = second compound 0.1 µM, first compound 0.0316 µM
[9] = second compound 0.1 µM, first compound 0.1 µM
[10] = second compound 0.1 µM, first compound 0.316 µM
[11] = second compound 0.1 µM, first compound 1 µM
[12] = second compound 0.316 µM, first compound 0.00316 µM
[13] = second compound 0.316 µM, first compound 0.01 µM
[14] = second compound 0.316 µM, first compound 0.0316 µM
[15] = second compound 0.316 µM, first compound 0.1 µM
[16] = second compound 0.316 µM, first compound 0.316 µM
[17] = second compound 0.316 µM, first compound 1 µM
[18] = second compound 1 µM, first compound 0.00316 µM
[19] = second compound 1 µM, first compound 0.01 µM
[20] = second compound 1 µM, first compound 0.0316 µM
[21] = second compound 1 µM, first compound 0.1 µM
[22] = second compound 1 µM, first compound 0.316 µM
[23] = second compound 1 µM, first compound 1 µM
[24] = second compound 3.16 µM, first compound 0.00316 µM
[25] = second compound 3.16 µM, first compound 0.01 µM
[26] = second compound 3.16 µM, first compound 0.0316 µM
[27] = second compound 3.16 µM, first compound 0.1 µM
[28] = second compound 3.16 µM, first compound 0.316 µM
[29] = second compound 3.16 µM, first compound 1 µM
[30] = second compound 10 µM, first compound 0.00316 µM
[31] = second compound 10 µM, first compound 0.01 µM
[32] = second compound 10 µM, first compound 0.0316 µM
[33] = second compound 10 µM, first compound 0.1 µM
[34] = second compound 10 µM, first compound 0.316 µM
[35] = second compound 10 µM, first compound 1 µM
[36] = second compound 0.1 µM, first compound 3.16 µM
[37] = second compound 0.1 µM, first compound 10 µM
[38] = second compound 0.316 µM, first compound 3.16 µM
[39] = second compound 0.316 µM, first compound 10 µM
[40] = second compound 1 µM, first compound 3.16 µM
[41] = second compound 1 µM, first compound 10 µM
[42] = second compound 3.16 µM, first compound 3.16 µM
[43] = second compound 3.16 µM, first compound 10 µM
[44] = second compound 10 µM, first compound 3.16 µM
[45] = second compound 10 µM, first compound 10 µM

Row | Compound | IC50 [1] [nM] | IC50 [2] [nM] | IC50 [3] [nM] | IC50 [4] [nM] | IC50 [5] [nM] | viability, T/C [8] [%] | viability, T/C [9] [%] | viability, T/C [10] [%] | viability, T/C [11] [%] | viability, T/C [14] [%] | viability, T/C [15] [%] | viability, T/C [16] [%] | viability, T/C [17] [%] | viability, T/C [20] [%] | viability, T/C [21] [%] | viability, T/C [22] [%] | viability, T/C [26] [%] | viability, T/C [27] [%] | viability, T/C [32] [%] | viability, T/C [33] [%] | other results
1 | CC1COCCN1c1cc(-c2ccnn2C)c2ccnc(-c3ccn[nH]3)c2n1 (stereo not given) + CC(CO)NC(=O)c1cc(-c2ccc(Cl)cc2)nn(-c2cnn(C)c2)c1=O | 134 | 109 | 98.3 | 79.4 | 51.1 | 106 | 63.5 | 11.1 | 3.76 | 105 | 53.3 | 7.31 | 3.22 | 104 | 49 | 8.48 | 103 | 36.7 | 78.5 | 10.1 | viability, T/C [6]: 100%; viability, T/C [7]: 100%; viability, T/C [12]: 112%; viability, T/C [13]: 103%; viability, T/C [18]: 97.6%; viability, T/C [19]: 110%; viability, T/C [23]: 3.85%; viability, T/C [24]: 112%; viability, T/C [25]: 114%; viability, T/C [28]: 6.89%; viability, T/C [29]: 3.57%; viability, T/C [30]: 116%; viability, T/C [31]: 109%; viability, T/C [34]: 2.89%; viability, T/C [35]: 2.73%
2 | CC1COCCN1c1cc(-c2ccnn2C)c2ccnc(-c3ccn[nH]3)c2n1 (stereo not given) + Cc1cncc(-c2nc(NCCc3c[nH]c4ccccc34)c3ncn(C(C)C)c3n2)c1 | 192 | 192 | 150 | 49.8 | < 3.16 | 108 | 89.9 | 19.7 | 6.85 | 116 | 88.4 | 20.5 | 7.37 | 100 | 69 | 15 | 65 | 26.9 | 7.76 | 1.45 | viability, T/C [6]: 106%; viability, T/C [7]: 114%; viability, T/C [12]: 119%; viability, T/C [13]: 118%; viability, T/C [18]: 106%; viability, T/C [19]: 104%; viability, T/C [23]: 5.51%; viability, T/C [24]: 74.9%; viability, T/C [25]: 74.9%; viability, T/C [28]: 4.19%; viability, T/C [29]: 2.86%; viability, T/C [30]: 8.14%; viability, T/C [31]: 10.1%; viability, T/C [34]: 0.29%; viability, T/C [35]: 0.46%
3 | COc1cc(Nc2ncc3c(n2)-c2ccc(Cl)cc2C(c2c(F)cccc2OC)=NC3)ccc1C(=O)O + Cc1cncc(-c2nc(NCCc3c[nH]c4ccccc34)c3ncn(C(C)C)c3n2)c1 | 6870 | 6370 | 6550 | 7760 | < 31.6 | 115 | 115 | 155 | 104 | 121 | 121 | 144 | 123 | 115 | 125 | 152 | 63.3 | 68.3 | 4.3 | 1.69 | viability, T/C [36]: 75.5%; viability, T/C [37]: 38.2%; viability, T/C [38]: 69%; viability, T/C [39]: 37.8%; viability, T/C [23]: 114%; viability, T/C [40]: 71.2%; viability, T/C [41]: 37.9%; viability, T/C [28]: 94.2%; viability, T/C [29]: 92.3%; viability, T/C [42]: 70.1%; viability, T/C [43]: 44.4%; viability, T/C [34]: 2.04%; viability, T/C [35]: 3.84%; viability, T/C [44]: 4.27%; viability, T/C [45]: 16.9%
4 | Nc1ncn(C2CC(O)C(CO)O2)c(=O)n1 (stereo not given) |  |  |  |  |  |  |  |  |  |  |  |  |  |  |  |  |  |  |  |  | viability, T/C (compound 0.00316 µM): 99.4% and 101% and 104%; viability, T/C (compound 0.01 µM): 102% and 81.5% and 104%; viability, T/C (compound 0.0316 µM): 98.7% and 88.8% and 106%; viability, T/C (compound 0.1 µM): 96.5% and 86% and 94.8%; viability, T/C (compound 0.316 µM): 81.5% and 69.4% and 93.1%; viability, T/C (compound 1 µM): 85.2% and 54.8% and 84.6%; IC50 (curve of compound): > 1000 nM
5 | Cn1ncnc1C1c2n[nH]c(=O)c3cc(F)cc(c23)NC1c1ccc(F)cc1 (stereo not given) + Cc1ccccc1N=Nc1ccc(NC(=O)c2ccnn2C)c(C)c1 | > 100 | > 100 | > 100 | > 100 | > 100 | 101 | 107 |  |  | 110 | 111 |  |  | 99.7 | 110 |  | 88.9 | 91.2 | 95.3 | 112 | viability, T/C (second compound 0.1 µM, first compound 0.000316 µM): 104%; viability, T/C (second compound 0.1 µM, first compound 0.001 µM): 102%; viability, T/C [6]: 107%; viability, T/C [7]: 101%; viability, T/C (second compound 0.316 µM, first compound 0.000316 µM): 103%; viability, T/C (second compound 0.316 µM, first compound 0.001 µM): 106%; viability, T/C [12]: 106%; viability, T/C [13]: 106%; viability, T/C (second compound 1 µM, first compound 0.000316 µM): 101%; viability, T/C (second compound 1 µM, first compound 0.001 µM): 106%; viability, T/C [18]: 108%; viability, T/C [19]: 117%; viability, T/C (second compound 3.16 µM, first compound 0.000316 µM): 92.3%; viability, T/C (second compound 3.16 µM, first compound 0.001 µM): 105%; viability, T/C [24]: 92%; viability, T/C [25]: 94%; viability, T/C (second compound 10 µM, first compound 0.000316 µM): 98.6%; viability, T/C (second compound 10 µM, first compound 0.001 µM): 112%; viability, T/C [30]: 90.5%; viability, T/C [31]: 93.5%
6 | Cc1cncc(-c2nc(NCCc3c[nH]c4ccccc34)c3ncn(C(C)C)c3n2)c1 |  |  |  |  |  |  |  |  |  |  |  |  |  |  |  |  |  |  |  |  | viability, T/C (compound 0.1 µM): 114% [middle of 20 runs]; viability, T/C (compound 10 µM): 11.6% [middle of 20 runs]; IC50 (compound alone, run of 08/16/2022): 5.18 µM [middle of 23 runs]
7 | CC1COCCN1c1cc(-c2ccnn2C)c2ccnc(-c3ccn[nH]3)c2n1 (stereo not given) + Cc1ccccc1N=Nc1ccc(NC(=O)c2ccnn2C)c(C)c1 | 196 | 197 | 211 | 177 | 155 | 105 | 86.9 | 23.9 | 8.22 | 108 | 86.2 | 24.9 | 8.15 | 102 | 92.5 | 26.9 | 89.3 | 77.7 | 96.1 | 67.5 | viability, T/C [6]: 97.6%; viability, T/C [7]: 108%; viability, T/C [12]: 107%; viability, T/C [13]: 109%; viability, T/C [18]: 119%; viability, T/C [19]: 104%; viability, T/C [23]: 7.53%; viability, T/C [24]: 99.5%; viability, T/C [25]: 112%; viability, T/C [28]: 22.7%; viability, T/C [29]: 10.2%; viability, T/C [30]: 96.9%; viability, T/C [31]: 96.8%; viability, T/C [34]: 21.2%; viability, T/C [35]: 9.41%
8 | Nc1ccccc1NC(=O)c1ccc(CNC(=O)OCc2cccnc2)cc1 + Cc1ccccc1N=Nc1ccc(NC(=O)c2ccnn2C)c(C)c1 | 7060 | 7470 | 7200 | 6610 | 5760 | 104 | 99.1 | 120 | 103 | 114 | 103 | 106 | 115 | 105 | 111 | 105 | 88.1 | 90.6 | 88.5 | 91.7 | viability, T/C [36]: 94.2%; viability, T/C [37]: 30.8%; viability, T/C [38]: 105%; viability, T/C [39]: 31.1%; viability, T/C [23]: 104%; viability, T/C [40]: 94.3%; viability, T/C [41]: 32%; viability, T/C [28]: 92.2%; viability, T/C [29]: 80.8%; viability, T/C [42]: 91.4%; viability, T/C [43]: 28.2%; viability, T/C [34]: 99.2%; viability, T/C [35]: 91.2%; viability, T/C [44]: 75.8%; viability, T/C [45]: 26.3%
